Data published in patent US6849661B2, “Treatment of abnormal increases in gastrointestinal motility with (R)-verapamil” (AGI Therapeutics, Ltd., priority 2002, dated 2005).
Where “and” joins values, the source holds several entries; their conditions need not be identical. Identical values can stand only once. Like-named read-outs stand apart in the source and are kept apart here.

How the values were obtained:
rat colon tissue = assay: Relaxation of KCl (80 mM)-induced contractions in rat colon tissue (tissue bath); assay type: cell-based; conditions: for IC50 / pIC50 (−log M), Colon: KCl 80 mM contracted rat colon
Method: Rat colon tissue was prepared and mounted in a tissue bath by standard methods familiar to those skilled in the art. The physiological medium contained KCl at a concentration of 80 mM, which produces contractions of the colon tissue. […] Potency was expressed as the concentration producing 50% of […] (IC50) or as the negative logarithm of the IC50 (pIC50).
Other compounds were tested for their ability to relax the KCl contractions, or block the relaxing action of verapamil.

rat aortic tissue = conditions: for pIC50 (−log M), Aorta / IC50: KCl 80 mM contracted rat aorta; for IC50: read-out: IC50 (M), Aorta
Method: Rat aortic tissue was prepared and mounted in a tissue bath by standard methods familiar to those skilled in the art. The physiological medium contained KCl at a concentration of 80 mM, which produces contractions of the aortic tissue.

rat vas prostatic tissue = assay: Contractions to electrical stimulation in rat vas deferens, prostatic portion; assay type: cell-based; conditions: FIG. 3
Description: (§1) In rat vas deferens there are two components to nerve stimulation, an […] component, dominant in the epididymal portion, and a non-adrenergic (purinergic) component, dominant in the prostatic portion. […] (Brown et al., Br J Pharmacol., 79:379-393, 1983).

[1] = system: rat vas epididymal tissue; assay: Contractions in rat vas deferens, epididymal portion (in the presence of nifedipine); assay type: cell-based; conditions: high concentrations, FIG. 3
Description: as §1

Compound	IC50 (rat colon tissue) [µM]	pIC50 (−log M), Colon (rat colon tissue)	pIC50 (−log M), Aorta (rat aortic tissue)	IC50 (rat aortic tissue)	effect on contractions to electrical stimulation in vas prostatic tissue (rat vas prostatic tissue)	effect on epididymal contraction [1]	ability to relax the KCl contractions (rat colon tissue; rat colon)	further results
COc1ccc(Cl)cc1C(=O)NCCc1ccc(S(=O)(=O)NC(=O)NC2CCCCC2)cc1 [Glibenclamine]								ability to block the relaxing action of verapamil on KCl contractions (rat colon tissue; rat colon): did not block the verapamil-induced relaxations
COc1ccc(CCN(C)CCC[C@](C#N)(c2ccc(OC)c(OC)c2)C(C)C)cc1OC [(R)-verapamil]	0.851	6.07±0.16 −log M	5.35±0.24 −log M	4.47e-06 M and 4.78e-06 M	neither (R)-verapamil nor (S)-verapamil abolished contractions	reduced this epididymal contraction		pIC50 (−log M), Colon (rat colon tissue; listed as R Isomer): 6.07 −log M; times less potent than (S)-verapamil in the intestine (rat colon tissue; rat colon): three; pIC50 (−log M), Aorta (rat aortic tissue; listed as R Isomer): 5.35 −log M; times less potent than (S)-verapamil in the aorta (rat aortic tissue; rat aorta): 10 times; IC50 (rat aortic tissue; listed as R Isomer): 4.47e-06 M
COc1ccc(CCN(C)CCC[C@@](C#N)(c2ccc(OC)c(OC)c2)C(C)C)cc1OC [(S)-verapamil]	0.295	6.53±0.13 −log M and 6.32±0.03 −log M	6.32±0.03 −log M	4.78e-07 M	neither (R)-verapamil nor (S)-verapamil abolished contractions	reduced this epididymal contraction		times more potent than (R)-verapamil in colon (rat colon tissue; rat colon, concentrations tested 1-100 μM): approximately 3 times
COc1cc2nc(N3CCN(C(=O)c4ccco4)CC3)nc(N)c2cc1OC [Prazosin]							did not significantly relax KCl contractions	
Cc1cccc(C)c1N=C1NCCCS1 [Xylazine]							small relaxation of the contractions, but only at the highest concentration tested (10^−4M)	
